# Square brackets hold non-standard residues; d marks the D form. Peptide text beside a SMILES is read from it. * marks the point of attachment. Dip = N[C@H](C(=O)O)C(c1ccccc1)c1ccccc1; Tos = Cc1ccc(S(=O)(=O)*)cc1; OBn = c1ccc(CO*)cc1; Sar = CNCC(=O)O
row,Compound,melting point [°C]
1,"Cc1ccc(S(=O)(=O)N(C)C(C(=O)N[C@@H](Cc2ccccc2)C(=O)OCc2ccccc2)c2ccccc2)cc1 (mixture of isomers) [Example 30, N-(Toluene-4-sulfonyl)-N-methyl-D,L-phenylglycyl-L-phenylalanine Benzyl Ester]",46 to 49
2,"Cc1ccc(S(=O)(=O)NCC(=O)N[C@@H](Cc2ccccc2)C(=O)O)cc1 [Example 3, N-(Toluene-4-sulfonyl)glycyl-L-phenylalanine] (Tos-Gly-Phe-OH)",157 to 161
3,"Cc1ccc(S(=O)(=O)N(C)CC(=O)N[C@@H](Cc2ccccc2)C(=O)O)cc1 [Example 4, N-(Toluene-4-sulfonyl)sarcosyl-L-phenylalanine] (Tos-[Sar]-Phe-OH)",128 to 130
4,"COC(=O)c1ccccc1S(=O)(=O)NCC(=O)N[C@@H](Cc1ccccc1)C(=O)O [Example 6, N-(2-Methoxycarbonylbenzenesulfonyl)-glycyl-L-phenylalanine]",140 to 143
5,"Cc1ccc(S(=O)(=O)N[C@@H](C)C(=O)N[C@@H](Cc2ccccc2)C(=O)OCc2ccccc2)cc1 [Example 20, N-(Toluene-4-sulfonyl)-L-alanyl-L-phenylalanine Benzyl Ester]",109 to 110
6,"Cc1ccc(S(=O)(=O)N(C)CC(=O)N[C@@H](Cc2ccccc2)C(=O)OCc2ccccc2)cc1 [Example 21, N-(Toluene-4-sulfonyl)sarcosyl-L-phenylalanine Benzyl Ester] (Tos-[Sar]-Phe-OBn)",80 to 82
7,"Cc1ccc(S(=O)(=O)N[C@H](C(=O)N[C@@H](Cc2ccccc2)C(=O)OCc2ccccc2)C(c2ccccc2)c2ccccc2)cc1 [Example 25, N-(Toluene-4-sulfonyl)-L-diphenylalanyl-L-phenylalanine Benzyl Ester] (Tos-[Dip]-Phe-OBn)",79 to 84

# Continued, values first:
row,melting point [°C],Compound
1,150 to 152,"Cc1ccc(S(=O)(=O)NC(C(=O)N[C@@H](Cc2ccccc2)C(=O)O)c2ccccc2)cc1 (mixture of isomers) [Example 9, N-(Toluene-4-sulfonyl)-D,L-phenylglycyl-L-phenylalanine]"
2,145 to 147,"CCOC(=O)[C@H](Cc1ccccc1)NC(=O)C(NS(=O)(=O)c1ccc(C)cc1)c1ccccc1 (mixture of isomers) [Example 22, N-(Toluene-4-sulfonyl)-D,L-phenylglycyl-L-phenylalanine Ethyl Ester]"
3,148 to 150,"Cc1ccc(S(=O)(=O)NC(C(=O)N[C@@H](Cc2ccccc2)C(=O)OCc2ccccc2)c2ccccc2)cc1 (mixture of isomers) [Example 29, N-(Toluene-4-sulfonyl)-D,L-phenylglycyl-L-phenylalanine Benzyl Ester]"
4,105 to 108,"Cc1ccc(S(=O)(=O)N[C@@H](C)C(=O)N[C@@H](Cc2ccccc2)C(=O)O)cc1 [Example 5, N-(Toluene-4-sulfonyl)-L-alanyl-L-phenylalanine]"

# Source: patent US7166580B2, “Compounds which inhibit leukocyte adhesion mediated by VLA-4” (Elan Pharmaceuticals, Inc., priority 1997, dated 2007)
